Measurements as given in BigSolDB 2.1.

Nc1ccc(S(=O)(=O)Nc2ncccn2)cc1
solubility (mole fraction)
Details | 278.15 K | 283.15 K | 288.15 K | 293.15 K | 298.15 K | 303.15 K | 308.15 K | 313.15 K | 318.15 K
in ethylene glycol | 0.00034 | 0.000379 | 0.000413 | 0.00047 | 0.000532 | 0.000575 | 0.000637 | 0.000694 | 0.000752
in water | 1.61e-06 | 2.01e-06 | 2.86e-06 | 3.8e-06 | 4.81e-06 | 6.49e-06 | 8.69e-06 | 1.14e-05 | 1.22e-05
